Values quoted from earlier work as cited in patent publication US10702472B2, “Production method of edible sustained-release functional material and edible sustained-release functional material” (AOBAKASEI KABUSHIKI KAISHA, priority 2017, dated 2020).

Settings: generally known value

collapse temperature: −40 °C
SMILES: O=C[C@H](O)[C@@H](O)[C@H](O)[C@H](O)CO [glucose]
